Tests used:
Format in all cases: cell-based
rLHR = rLHR (Rattus norvegicus, UniProt P16235); test: PCRE dependent SEAP expression over time in HEK293T expressing rLHR or bLHR; parameters: Full-length cDNAs encoding the LHRs of rat (r) and bovine (b) origin; expressed in transfected cells; host or cells: HEK293T, transient transfection with pLEN-rLHR; details: 500 ng/mL bLH, maximal SEAP expression
Method: HEK293T cells were transiently co-transfected for PCRE dependent SEAP expression and constitutive bLHR- or rLHR expression or with the empty vector pcDNA3.1(+). 24 hours post-transfection the cells were induced by addition of 500 ng/mL bLH or cultivated non-induced. […] (▴) rLHR+bLH; (▪) bLHR+bLH; (×) rLHR-bLH; (♦) bLHR-bLH;
Functional expression of LHRs on the cell surface results in the stimulation of PKA and an increase of intracellular cAMP in response to bLH. It was evaluated whether the activated LHR-signaling may induce a PKA-responsive promoter. […] 24 hours post-transfection the cells were induced by bLH and the SEAP expression was determined over time. […] In comparing rLHR- and bLHR-expressing cells a 3-fold increase in maximal SEAP expression in response to bLH of the rLHR over the bLHR was detected. […]
The intracellular cAMP production of cells was quantified using the cAMP Fluorescence Polarization (FP) Biotrak Immunoassay System (GE Healthcare Bio-Sciences GmbH, Otelfingen, Switzerland, Cat No. RPN3595) according to the manufacturer's protocol. The expression of firefly luciferase was determined with the Tropix Luciferase Assay Kit (Applied Biosystems, Bedford, USA, Cat No. BC100L). […] Enhanced YFP-expression was detected by fluorescence microscopy (Leica Microsystems, Wetzlar, Germany)

[1] = molecular target: T1, bovine luteinizing hormone receptor (bLHR) (Bos taurus, UniProt Q28005); test: Intracellular cAMP in HEK293T cells transiently expressing bLHR, induced by bLH; details: 500 ng/ml bLH, 1 h post-induction, bLHR expressed, vs non-induced cells
T1 construct: Full-length cDNAs encoding the LHRs of rat (r) and bovine (b) origin; expressed in transfected cells; host or cells: HEK293T, transient transfection with pcDNA3.1-bLHR
Method: (§1) HEK293T cells were transiently transfected for constitutive bLHR or rLHR expression. 48 hours post-transfection the cells were induced by the addition of 500 ng/ml bLH. The intracellular cAMP-levels were determined 1 h post-induction. […] (□) no bLH, (▪) 500 ng/mL bLH.
(§2) Full-length cDNAs encoding the LHRs of rat (r) and bovine (b) origin were cloned under control of the strong constitutive human cytomegalovirus promoter (PCMV) as previously described [Kawate N, Tamada H, Inaba T, Sawada T, Journal of Reproduction and Development 2002; 48:8; Ulaner G A, Chuang J, Lin W, Woodbury D, Myers R V, Moyle W R, J Endocrinol 1999; 163:289-97]. The expression vectors were transiently transfected into HEK293T cells. The functionality of the expressed LHRs was determined 48 hours post-transfection by assaying the intracellular cAMP increase in response to the presence of bLH (FIG. 7). […] However, when the rLHR was expressed the detected cAMP-level increased to 29-fold level of the non-induced cells. […]
(§3) The intracellular cAMP production of cells was quantified using the cAMP Fluorescence Polarization (FP) Biotrak Immunoassay System (GE Healthcare Bio-Sciences GmbH, Otelfingen, Switzerland, Cat No. RPN3595) according to the manufacturer's protocol. The expression of firefly luciferase was determined with the Tropix Luciferase Assay Kit (Applied Biosystems, Bedford, USA, Cat No. BC100L). […]

[2] = molecular target: T2, rat luteinizing hormone receptor (rLHR) (Rattus norvegicus, UniProt P16235); test: Intracellular cAMP in HEK293T cells transiently expressing rLHR, induced by bLH; details: 500 ng/ml bLH, 1 h post-induction, rLHR expressed, vs non-induced cells
T2 construct: Full-length cDNAs encoding the LHRs of rat (r) and bovine (b) origin; expressed in transfected cells; host or cells: HEK293T, transient transfection with pLEN-rLHR
Method: as §1, §2, §3

T2 sequence (P16235 27-700): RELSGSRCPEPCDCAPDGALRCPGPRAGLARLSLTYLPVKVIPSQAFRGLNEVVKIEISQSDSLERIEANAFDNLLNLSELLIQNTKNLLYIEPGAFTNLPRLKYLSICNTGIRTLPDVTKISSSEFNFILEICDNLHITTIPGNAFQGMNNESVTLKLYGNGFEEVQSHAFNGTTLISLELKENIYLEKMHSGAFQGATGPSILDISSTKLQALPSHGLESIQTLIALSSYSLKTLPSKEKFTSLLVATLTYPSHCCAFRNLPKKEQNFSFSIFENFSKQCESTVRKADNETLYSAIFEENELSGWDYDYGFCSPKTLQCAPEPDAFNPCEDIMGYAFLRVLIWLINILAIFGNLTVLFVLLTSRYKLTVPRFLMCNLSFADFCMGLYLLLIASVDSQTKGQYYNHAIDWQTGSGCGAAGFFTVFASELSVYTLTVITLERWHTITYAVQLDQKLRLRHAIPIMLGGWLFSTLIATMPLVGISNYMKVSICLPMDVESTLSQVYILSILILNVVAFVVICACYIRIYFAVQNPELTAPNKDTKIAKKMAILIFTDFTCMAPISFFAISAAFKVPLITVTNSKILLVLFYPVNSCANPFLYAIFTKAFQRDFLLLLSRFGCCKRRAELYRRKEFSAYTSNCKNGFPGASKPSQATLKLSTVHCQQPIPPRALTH
Chain of rLHR (P16235 27-700): as above
T1 sequence (Q28005 27-701): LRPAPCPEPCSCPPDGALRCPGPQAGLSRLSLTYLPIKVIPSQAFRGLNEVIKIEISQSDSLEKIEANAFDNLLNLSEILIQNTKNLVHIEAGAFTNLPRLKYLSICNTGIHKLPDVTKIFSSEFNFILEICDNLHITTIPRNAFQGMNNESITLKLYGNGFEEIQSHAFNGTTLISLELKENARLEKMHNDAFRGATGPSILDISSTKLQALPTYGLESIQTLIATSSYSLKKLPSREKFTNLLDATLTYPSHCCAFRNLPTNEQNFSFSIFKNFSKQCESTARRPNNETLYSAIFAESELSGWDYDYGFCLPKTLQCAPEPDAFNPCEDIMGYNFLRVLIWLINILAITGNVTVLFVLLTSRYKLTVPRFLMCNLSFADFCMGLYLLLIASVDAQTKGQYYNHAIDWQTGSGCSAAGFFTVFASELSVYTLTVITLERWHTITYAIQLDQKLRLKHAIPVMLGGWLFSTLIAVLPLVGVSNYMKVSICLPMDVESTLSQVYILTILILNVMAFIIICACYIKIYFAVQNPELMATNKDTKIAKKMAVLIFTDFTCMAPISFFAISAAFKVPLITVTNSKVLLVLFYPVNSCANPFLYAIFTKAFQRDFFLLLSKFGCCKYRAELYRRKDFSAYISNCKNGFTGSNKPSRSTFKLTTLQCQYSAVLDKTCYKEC

- SEAP production of rLHR-expressing cells relative to bLHR-expressing cells (rLHR): 3 fold
- increase in intracellular cAMP [1]: 12 fold
- increase in intracellular cAMP [2]: 29 fold
Substance: bovine luteinizing hormone [bLH]

Reference: patent US8506950B2, “Degradable microcapsules” (ETH Zurich, priority 2008, dated 2013)
